How the values were obtained:
Assay type in all cases: cell-based, Human
[1] = test system: IL8 mRNA; test: qRT-PCR of IL8 mRNA in HFFs
Procedure: (§1) Total RNA was isolated from cells using RNAeasy Mini kit (Qiagen, Georgetown, Md.) according to manufacturer's instructions. RevertAid first strand cDNA synthesis kit (Fermentas life sciences, Cromwell Park, Md.) was used to synthesize first strand cDNA from total RNA using oligo-dT primers. Negative reverse-transcriptase (−RT) reactions were included to ensure the specificity of qRT-PCR reactions. Synthesis of first strand cDNA from mRNA template was carried out at 42° C. for 1 h. Quantitative RT-PCR was performed using specific primers and SYBR green (Fermentas life science) with two-step cycling protocol (95° C. for 15 s, 60° C. for 1 min). All reactions were performed in triplicates and GAPDH was used as internal control. The expression level of the tested genes was normalized to the expression of GAPDH.

[2] = test system: NOD2 mRNA; test: qRT-PCR of NOD2 mRNA in HFFs; conditions: for NOD2 induction by MDP: HCMV-infected, 36 hpi
Procedure: as §1

[3] = test system: secreted IFN-β; test: IFN-β specific ELISA of supernatants; conditions: MDP pretreatment 18 or 72 h, MOI 1, 24 h
Procedure: The effect of MDP pretreatment on levels of secreted IFN-β in supernatants from non-infected or HCMV-infected HFFs was measured by IFN-β specific ELISA kit (PBL Assay Science, Piscataway, N.J.).

[4] = test system: TANK-binding kinase (TBK1); test: Western blot of NOD2 downstream signaling proteins; conditions: HCMV-infected, MOI 0.1, MDP treatment, 36 hpi
Procedure: Cell lysates containing equivalent amount of proteins were mixed with an equal volume of sample buffer (125 mM Tris-HCL, pH 6.8, 4% SDS, 20% glycerol and 5% β-mercaptoethanol) and boiled at 100° C. for 10 min. Denatured proteins were resolved in Tris-glycine polyacrylamide gels (10-12%) and transferred to polyvinylidine difluoride (PVDF) membranes (Bio-Rad Laboratories, Hercules, Calif.) by electroblotting. Membranes were incubated in blocking solution [5% w/v non-fat dry milk and 0.1% Tween-20 in PBS (PBST)] for 1 h, washed with PBST, and incubated with antibody at 4° C. overnight. Membranes were washed with PBST and incubated with horseradish peroxidase-conjugated secondary antibodies in PBST for 1 h at room temperature. Following washing with PBST, protein bands were visualized by chemiluminescence using SuperSignal West Dura and Pico reagents (Pierce Chemical, Rockford, Ill.). Antibodies for HCMV proteins were used at 1:2000 and included: mouse monoclonal anti-HCMV IE1 & IE2 (MAB810, Millipore, Billerica, Mass.), mouse monoclonal anti-HCMV UL83 (pp65, Vector Laboratories Inc., Burlingame, Calif.), and mouse monoclonal anti-pp52 (UL44, Santa Cruz Biotechnology, Santa Cruz, Calif.). […]

[5] = test system: IFN-β mRNA; test: qRT-PCR of IFN-β mRNA in HFFs
Procedure: as §1

[6] = test system: HFFs; test: MTT cell viability assay
Procedure: MTT assay (Sigma-Aldrich) was performed to rule out any cytotoxicity induced by MDP treatment. Cells (HFFs and transduced GIPZ/shIFNβ-HFFs as described below) were pretreated with MDP for 96- and 72 h, respectively and 20 μl/well of MTT [3-(4, 5-Dimethyl-2-thiazolyl)-2, 5-diphenyl-2H-tetrazolim bromide, 5 mg/mL in phosphate buffered saline (PBS)] was added to each well. After shaking plates at 150 rpm for 5 minutes the plates were incubated at 37° C. for 3 hours. Conversion of yellow solution to dark blue formazan by mitochondrial dehydrogenases of living cells was quantified by measuring absorbance at 560 nm.

[7] = HCMV-infected, MDP treatment, 4 hpi

## CC(=O)N[C@H]1C(O)O[C@H](CO)[C@@H](O)[C@@H]1O[C@H](C)C(=O)N[C@@H](C)C(=O)N[C@H](CCC(=O)O)C(N)=O (mixture of isomers) [MDP, Muramyl dipeptide]
[1]; [7]
  increase in IL8 mRNA: 2 fold
[1]; MDP after infection compared to MDP or HCMV alone, irrespective of MOI
  further increase of IL8 mRNA: 6-7 fold
[1]; MDP alone, non-infected, 36 h
  IL8 expression induction: 3 fold
[1]; MDP pretreatment 72 h, non-infected or HCMV-infected
  IL8 expression: modestly induced
[2]; MOI 0.1, MDP after infection
  NOD2 induction by MDP: 6.5 fold
[2]; MOI 1, MDP after infection
  NOD2 induction by MDP: 2.5 fold
[2]; MDP pretreatment 72 h then HCMV Towne MOI 1 for 24 h (infection only 50-fold)
  NOD2 mRNA induction: 265 fold
[2]; non-infected HFFs, MDP 10 μg/mL, 36 h
  induction of NOD2 mRNA: 4 fold
[2]; non-infected cells, 72 h MDP treatment then 24 h medium
  induction of NOD2 mRNA: 3 fold
[3]
  secreted IFN-β: increased with the duration of MDP-pretreatment
[4]
  phosphorylation of TBK1: increased phosphorylation
[5]; [7]
  increase in IFN-β mRNA: 2 fold
[5]; MDP after infection at MOI 0.1, 36 hpi (infection only 15-fold)
  induction of IFN-β mRNA: 170 fold
[5]; MDP after infection at MOI 1, 36 hpi (infection only 300-fold)
  induction of IFN-β mRNA: 800 fold
[5]; MDP alone, compared to non-infected cells, 36 h
  IFN-β expression induction: 4 fold
[5]; MDP pretreatment 72 h then HCMV MOI 1 for 24 h
  IFN-β mRNA: significant induction
[5]; non-infected HFFs, MDP pretreatment 72 h
  IFN-β mRNA: did not result in IFN-β induction
[6]; HFFs treated 96 h
  cellular toxicity (MTT): no toxicity at any of the concentrations used
[6]; control GIPZ or shIFN-β KD HFFs, MDP 10 μg/mL 72 h
  toxicity / cell growth (MTT): No toxicity or difference in cell growth

Reference: US20170021014A1, “VACCINE ADJUVANTS FOR CYTOMEGALOVIRUS PREVENTION AND TREATMENT” (THE JOHNS HOPKINS UNIVERSITY, priority 2015, published 2017)
